For experiment [1], the system named is skin tumor formation induced by DMBA and TPA. As to the kind of experiment: Two-stage mouse skin carcinogenesis model (DMBA/TPA). It is filed as in vivo, ICR mice. The source says: The chemoprotective effect of xanthorrhizol and the methanolic extract of Curcuma xanthorrhiza Roxb. against tumor formation was investigated in multistage mouse carcinogenesis induced by tumor initiator (DMBA) and tumor promoter (TPA).
To evaluate the inhibitory effect of xanthorrhizol and the methanolic extract of Curcuma xanthoffhiza Roxb. against tumor formation, 30 mice (6 weeks age, female) per an experimental group was used. The dorsal region of ICR mice was shaved with an electric clipper. After a topical application of 0.2 μmol DMBA in 0.2 ml acetone, mice were treated topically with xanthorrhizol or the methanolic extract of Curcuma xanthorrhiza 30 min prior to each topical application of 10 nmol TPA in 0.2 ml acetone which was continued three times weekly for 19 weeks. The negative control was treated with only 0.2 ml acetone. Tumors were counted and recorded biweekly. The results were expressed as the average number of tumors per mouse (tumor multiplicity) and the percentage of tumor-bearing mice (tumor incidence) and are shown at FIG. 3 and FIG. 4. […] FIG. 4 is a photograph representing the inhibitory effect of xanthorrhizol against tumor formation at 19 weeks.

In a further experiment the test system is HL-60 cells. As to the kind of experiment: Flow cytometric cell cycle analysis of HL-60 cells (sub-G1 phase). The settings on record: 24 hours, control 20%. It is filed as cell-based, Human. The protocol:
The effect of xanthorrhizol on cell cycle was examined by flow cytometric analysis. HL-60 cells were cultured in serum-free RPMI 1640 medium for 48 hr to stop cell cycle at GO phase. The medium was exchanged to 10% FBS-RPMI 1640 media with 0, 20, 60 μM of xanthorrhizol, respectively. 24 hours later, the cells obtained after centrifugation were fixed in 70% ethanol at −20° C. overnight. The cells were washed twice again with PBS, and incubated with 100 U/ml of Rnase at 37° C. for 1 hr. The cell pellet was resuspended in propidium iodide solution after washing twice with PBS. The cells were analyzed by flow cytometry and the result was represented at FIG. 11.
Background: Flow cytometry measures light scatter and fluorescence of single cells or particles in a stream.

Another experiment addresses T1, iNOS (Mus musculus, UniProt P29477).
T1 construct: endogenous in cells; host or cells: RAW264.7 macrophage cells, LPS-stimulated
T1 sequence (P29477 1-1144): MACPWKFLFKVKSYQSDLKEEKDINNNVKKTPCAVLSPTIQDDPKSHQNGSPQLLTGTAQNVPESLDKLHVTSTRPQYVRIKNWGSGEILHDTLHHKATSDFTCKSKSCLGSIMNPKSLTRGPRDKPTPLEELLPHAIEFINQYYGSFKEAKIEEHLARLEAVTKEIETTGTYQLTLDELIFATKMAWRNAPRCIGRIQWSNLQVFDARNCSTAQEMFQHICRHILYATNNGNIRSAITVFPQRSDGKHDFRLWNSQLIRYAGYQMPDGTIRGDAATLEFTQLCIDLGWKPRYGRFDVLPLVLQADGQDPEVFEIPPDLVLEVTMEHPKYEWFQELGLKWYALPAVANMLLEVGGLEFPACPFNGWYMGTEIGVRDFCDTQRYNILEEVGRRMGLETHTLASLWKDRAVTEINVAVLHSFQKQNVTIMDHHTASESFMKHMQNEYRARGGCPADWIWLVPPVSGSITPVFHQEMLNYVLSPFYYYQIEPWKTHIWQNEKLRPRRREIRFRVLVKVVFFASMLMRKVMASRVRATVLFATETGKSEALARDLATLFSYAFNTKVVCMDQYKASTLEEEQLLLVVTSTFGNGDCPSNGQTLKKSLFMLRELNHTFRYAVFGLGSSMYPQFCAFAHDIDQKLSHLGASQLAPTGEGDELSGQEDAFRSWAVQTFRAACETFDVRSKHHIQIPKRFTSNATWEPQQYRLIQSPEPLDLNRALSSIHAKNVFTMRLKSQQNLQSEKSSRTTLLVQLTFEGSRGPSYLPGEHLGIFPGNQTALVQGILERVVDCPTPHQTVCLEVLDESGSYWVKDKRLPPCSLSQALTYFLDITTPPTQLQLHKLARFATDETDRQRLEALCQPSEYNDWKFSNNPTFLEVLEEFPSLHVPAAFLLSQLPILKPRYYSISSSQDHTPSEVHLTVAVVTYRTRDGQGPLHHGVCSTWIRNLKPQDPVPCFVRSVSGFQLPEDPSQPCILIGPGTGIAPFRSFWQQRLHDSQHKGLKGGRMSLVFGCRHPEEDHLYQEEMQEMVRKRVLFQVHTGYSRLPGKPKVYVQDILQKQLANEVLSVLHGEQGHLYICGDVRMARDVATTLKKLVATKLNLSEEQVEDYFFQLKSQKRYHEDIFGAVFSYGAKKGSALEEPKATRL
Put plainly: Inhibition of LPS-induced iNOS activity (nitric oxide production) in RAW264.7 macrophage cells. It is filed as cell-based. The settings on record: LPS 1 μg/ml, 20 hr. The protocol: The effect of xanthorrhizol on iNOS activity induced by LPS was measured. RAW264.7 macrophage cells were maintained in DMEM supplemented with penicillin-streptomycin and 10% FBS at 37° C., in 5% CO2 of humidified air. The cells in 10% FBS-DMEM without phenol red media were plated in 24-well plates (8×10^5/ml), and then incubated for 4 hr. The cells were replaced with new media, and incubated in the medium with 1 μg/ml of LPS and xanthorrhizol. After an additional 20 hr incubation, the media were removed and analyzed for nitrite accumulation as an indicator of NO production by the Griess reaction. 150 μl of Griess reagent were added to 100 μl of each supernatant from LPS and/or xanthorrhizol treated cells in triplicate. The plates were incubated for 10 min, and were read at 570 nm against a standard curve of NaNO2. The percentage inhibition was expressed as [1−(NO level of sample/NO level of vehicle treated−control)]×100.

Turning to `CC(C)=CCC[C@@H](C)c1ccc(C)c(O)c1` [xanthorrhizol], the “average number of skin tumors per mouse (tumor multiplicity)” value in experiment [1] (6 μmol topical, three times per week for 19 weeks, DMBA/TPA control 15.5) is given as 4.0 skin tumors per mouse. For the same compound, the “percentage of tumor-bearing mice (tumor incidence)” value in experiment [1] (6 μmol topical, three times per week for 19 weeks, all DMBA/TPA control mice had tumors) amounted to 57%. In experiment [1] (topical application 30 min prior to each TPA, three times weekly for 19 weeks), the tumor formation entry was “inhibits tumor formation dose-dependently”. Moreover, the figures for the “proportion of cells in sub-G1 phase (apoptosis peak)” value in the experiment on HL-60 cells (20 μM) and in the experiment with HL-60 cells (60 μM) were 36% and 76%, respectively. Further, the IC50 on iNOS (read-out: IC50, LPS-induced iNOS activity (NO) (converted)) is 4.63 µM. For the same compound, at iNOS (RAW264.7, 10 μg/ml, read-out: percentage inhibition of LPS-induced nitric oxide production (iNOS activity)), the inhibition at 10 µg/mL is no less than 99%.

A word on the IC50: it is the concentration at which inhibition is half-maximal. As a reminder, the inhibition is the change of the read-out against control, counted positive when it falls.
